Literature values, collected in US20220047514A1, “SOLID ORAL PHARMACEUTICAL COMPOSITIONS FOR CHRONOTROPIC ADMINISTRATION OF DIPEPTIDYL PEPTIDASE IV INHIBITORS” (priority 2018, published 2022).

Assays:
DPP-8 = DPP-8 (Homo sapiens, UniProt Q6V1X1); settings: at therapeutic concentrations
DPP-9 = DPP-9 (Homo sapiens, UniProt Q86TI2); settings: at therapeutic concentrations
DPP-9, sequence (Q86TI2 whole entry): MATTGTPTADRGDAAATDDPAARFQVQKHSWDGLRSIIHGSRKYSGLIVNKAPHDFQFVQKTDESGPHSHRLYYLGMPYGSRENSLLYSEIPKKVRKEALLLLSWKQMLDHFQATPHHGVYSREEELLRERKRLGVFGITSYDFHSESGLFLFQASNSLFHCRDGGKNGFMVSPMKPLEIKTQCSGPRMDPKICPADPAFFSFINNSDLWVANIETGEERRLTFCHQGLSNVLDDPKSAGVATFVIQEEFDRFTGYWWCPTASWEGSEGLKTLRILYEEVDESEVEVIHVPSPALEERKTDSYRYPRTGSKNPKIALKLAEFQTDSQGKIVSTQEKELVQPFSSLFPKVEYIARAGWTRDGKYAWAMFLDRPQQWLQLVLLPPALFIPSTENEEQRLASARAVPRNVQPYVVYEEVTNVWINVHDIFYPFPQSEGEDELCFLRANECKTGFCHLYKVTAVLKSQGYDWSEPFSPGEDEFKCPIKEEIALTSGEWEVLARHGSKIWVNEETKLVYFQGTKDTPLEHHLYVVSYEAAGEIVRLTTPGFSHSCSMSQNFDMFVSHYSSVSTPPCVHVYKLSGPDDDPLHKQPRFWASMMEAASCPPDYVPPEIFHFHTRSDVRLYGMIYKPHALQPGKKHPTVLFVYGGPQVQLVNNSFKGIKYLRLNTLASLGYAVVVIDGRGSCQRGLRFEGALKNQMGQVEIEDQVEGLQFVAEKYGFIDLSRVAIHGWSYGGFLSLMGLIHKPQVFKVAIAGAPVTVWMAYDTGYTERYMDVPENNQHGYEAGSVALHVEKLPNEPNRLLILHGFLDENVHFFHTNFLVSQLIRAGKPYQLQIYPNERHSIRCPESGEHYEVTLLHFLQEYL

DPP-8, sequence (Q6V1X1 whole entry): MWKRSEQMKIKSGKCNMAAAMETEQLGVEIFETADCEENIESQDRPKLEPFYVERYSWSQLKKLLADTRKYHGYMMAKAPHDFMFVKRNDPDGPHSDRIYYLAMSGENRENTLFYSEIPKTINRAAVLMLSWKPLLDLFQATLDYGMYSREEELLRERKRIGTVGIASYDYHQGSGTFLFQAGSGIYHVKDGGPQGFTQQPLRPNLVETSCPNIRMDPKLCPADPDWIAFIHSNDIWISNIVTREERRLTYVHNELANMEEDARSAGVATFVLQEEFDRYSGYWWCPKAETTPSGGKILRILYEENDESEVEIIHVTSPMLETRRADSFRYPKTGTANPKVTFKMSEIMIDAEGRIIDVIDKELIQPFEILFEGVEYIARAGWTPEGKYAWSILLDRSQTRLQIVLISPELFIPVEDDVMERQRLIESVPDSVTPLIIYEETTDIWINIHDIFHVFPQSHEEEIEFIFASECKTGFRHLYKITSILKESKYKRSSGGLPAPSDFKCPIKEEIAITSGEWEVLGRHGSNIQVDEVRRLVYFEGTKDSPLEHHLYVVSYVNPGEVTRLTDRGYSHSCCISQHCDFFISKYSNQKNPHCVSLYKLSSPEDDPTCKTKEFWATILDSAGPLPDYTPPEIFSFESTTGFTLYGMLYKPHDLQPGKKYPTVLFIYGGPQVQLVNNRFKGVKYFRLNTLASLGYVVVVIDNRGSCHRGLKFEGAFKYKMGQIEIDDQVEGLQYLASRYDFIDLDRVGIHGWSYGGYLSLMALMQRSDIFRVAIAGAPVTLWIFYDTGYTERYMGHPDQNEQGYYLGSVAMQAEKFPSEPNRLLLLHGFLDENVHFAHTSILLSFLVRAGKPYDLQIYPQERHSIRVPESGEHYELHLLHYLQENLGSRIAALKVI

inhibition of the activity of DPP-8 (DPP-8): does not inhibit
inhibition of the activity of DPP-9 (DPP-9): does not inhibit
Structure (SMILES): N[C@@H](CC(=O)N1CCn2c(nnc2C(F)(F)F)C1)Cc1cc(F)c(F)cc1F [Sitagliptin, sitagliptin]
